The values below come from PubChem BioAssay (NCI).

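Five compound concentrations were applied to cells in 96-well plates for 48 hours; endpoints were derived by simple linear interpolation of the resulting dose-response curve. At the TGI there is no net growth.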

Some test systems named below: DU-145 prostate; CCRF-CEM leukemia; RXF 393 renal; OVCAR-4 ovarian; HOP-92 NSCLC; SNB-75 CNS; OVCAR-3 ovarian; M14 melanoma; HS 578T breast; MDA-MB-435; SF-539 CNS; HCT-15 colon; NCI-H23 lung; A549 NSCLC; SK-MEL-2 melanoma; EKVX NSCLC; KM12 colon; NCI-H522 lung; HCC-2998 colon; 786-0 renal.
Common to all, as to test: DTP human tumour cell line panel, 48 h

With `C=CC1(c2ccc(Br)cc2)OCCCO1`, the TGI in the assay with DU-145 prostate, in the assay with CCRF-CEM leukemia, in the assay with RXF 393 renal, in the assay on OVCAR-4 ovarian, with HOP-92 NSCLC and in the assay with SNB-75 CNS was > 100 µM each time. Moreover, the TGI in the assay with OVCAR-3 ovarian, in the assay on M14 melanoma, in the assay with HS 578T breast, in the assay on MDA-MB-435, with SF-539 CNS and in the assay on HCT-15 colon was > 100 µM in each case. Further, the TGI in the assay on NCI-H23 lung, in the assay on A549 NSCLC, in the assay on SK-MEL-2 melanoma, in the assay on EKVX NSCLC, with KM12 colon and with NCI-H522 lung was > 100 µM throughout. The TGI in the assay with HCC-2998 colon and in the assay with 786-0 renal was > 100 µM throughout.
With `O=c1[nH]c(=O)n(C2CC(O)C(CO)O2)c2nc3ccc4ccccc4c3nc12` (stereo not given), the total growth inhibition concentration (TGI) in the assay with DU-145 prostate, with CCRF-CEM leukemia, with RXF 393 renal, in the assay with OVCAR-4 ovarian, in the assay on HOP-92 NSCLC and in the assay on SNB-75 CNS was > 100 µM throughout. Besides, the TGI with OVCAR-3 ovarian, in the assay with M14 melanoma, in the assay with HS 578T breast, in the assay with MDA-MB-435, with SF-539 CNS and in the assay with HCT-15 colon was > 100 µM each time. Also, the TGI with NCI-H23 lung, in the assay with A549 NSCLC, in the assay on SK-MEL-2 melanoma, in the assay with EKVX NSCLC, with KM12 colon and with NCI-H522 lung was > 100 µM throughout. The TGI in the assay on HCC-2998 colon and in the assay with 786-0 renal was > 100 µM throughout.
For `COC(=O)C(Cc1c[nH]c2ccccc12)NP(=O)(O)OCC1OC(n2cc(F)c(=O)[nH]c2=O)CC1O` (stereo not given), the TGI in the assay with DU-145 prostate is > 100 µM; in the assay on CCRF-CEM leukemia, > 59.1 µM; in the assay on RXF 393 renal, > 100 µM; with OVCAR-4 ovarian it was > 100 µM; in the assay with HOP-92 NSCLC, > 100 µM; in the assay with SNB-75 CNS, > 100 µM. For the same molecule, the TGI in the assay on OVCAR-3 ovarian, in the assay on M14 melanoma, in the assay with HS 578T breast, in the assay with MDA-MB-435, in the assay with SF-539 CNS and in the assay with HCT-15 colon was > 100 µM in each case. Further, the concentration for total growth inhibition (TGI) in the assay on NCI-H23 lung, with A549 NSCLC, with SK-MEL-2 melanoma, with EKVX NSCLC, in the assay on KM12 colon and with NCI-H522 lung was > 100 µM each time. In addition, the TGI in the assay with HCC-2998 colon and with 786-0 renal was > 100 µM in each case.
